The values that follow come from patent US8476302B2, “α-ketoamide derivatives useful endothelial lipase inhibitors” (Janssen Pharmaceutica N.V., priority 2010, dated 2013).

“And” between values parts separate entries of the source, which are not always exact repeats. Identical values can stand only once.

One test deals with T1, Mouse EL (Mus musculus, UniProt Q9WVG5).
T1 construct: host or cells: not described for mouse EL
T1 sequence (Q9WVG5 21-500): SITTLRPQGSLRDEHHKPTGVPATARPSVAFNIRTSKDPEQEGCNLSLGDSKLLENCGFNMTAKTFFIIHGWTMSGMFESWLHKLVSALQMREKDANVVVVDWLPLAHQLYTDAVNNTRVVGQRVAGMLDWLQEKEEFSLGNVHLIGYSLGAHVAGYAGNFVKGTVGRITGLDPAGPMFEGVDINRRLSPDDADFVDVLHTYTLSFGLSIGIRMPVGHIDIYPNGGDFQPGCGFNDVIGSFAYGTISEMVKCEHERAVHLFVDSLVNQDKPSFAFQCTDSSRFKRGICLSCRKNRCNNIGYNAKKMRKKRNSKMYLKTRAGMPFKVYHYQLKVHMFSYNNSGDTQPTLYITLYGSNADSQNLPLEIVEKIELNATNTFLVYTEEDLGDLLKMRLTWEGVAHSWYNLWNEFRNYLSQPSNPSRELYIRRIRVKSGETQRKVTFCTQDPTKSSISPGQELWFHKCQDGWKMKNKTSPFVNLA
In words: Endothelial Lipase Assay, cell surface lipase activity (mouse). The test is classed as cell-based. As to conditions: PLA1 substrate 10 μM, fluorescence reaction rate, several values in a cell are repeat determinations. The method, then: (§1) Endothelial Lipase Assay (Human/Mouse)
(§2) To assay for cell surface lipase activity, cells expressing human endothelial lipase (EL) or LPL were plated in CellBIND® 384-well plates (Corning, Lowell, Mass.) in 25 μL serum free medium at a density of 2000 cells/well. After 18-24 hours incubation at 37° C., the medium was removed and replaced with 15 μL assay buffer [Hank's Buffered Saline Solution with 25 mM HEPES pH 7.2] and 15 μL PLA1 for a final concentration of 10 μM using a Multidrop reagent dispenser. Fluorescence signal was monitored for 30 min at 37° C. on a Safire II plate reader in kinetic mode (60 cycles, kinetic interval: 30 seconds) with an excitation wavelength of 490 nm and an emission wavelength of 515 nm. Linear regression of the fluorescence intensity collected from 480 to 1500 seconds was used to calculate the reaction rate (the slope) and the slopes were used to calculate IC50 values where appropriate. The amount of BODIPY-labeled product generated was calculated at the 30 min time point as determined from standard curve analysis of purified BODIPY FL C5. In all studies using the inhibitor Ebelactone B, consistent results were obtained when it was dissolved as a stock in DMSO, immediately before use.

The target of test [1] is T2, human endothelial lipase (EL) (Homo sapiens, UniProt Q9Y5X9).
T2 construct: host or cells: cells expressing human endothelial lipase
T2 sequence (Q9Y5X9 21-500): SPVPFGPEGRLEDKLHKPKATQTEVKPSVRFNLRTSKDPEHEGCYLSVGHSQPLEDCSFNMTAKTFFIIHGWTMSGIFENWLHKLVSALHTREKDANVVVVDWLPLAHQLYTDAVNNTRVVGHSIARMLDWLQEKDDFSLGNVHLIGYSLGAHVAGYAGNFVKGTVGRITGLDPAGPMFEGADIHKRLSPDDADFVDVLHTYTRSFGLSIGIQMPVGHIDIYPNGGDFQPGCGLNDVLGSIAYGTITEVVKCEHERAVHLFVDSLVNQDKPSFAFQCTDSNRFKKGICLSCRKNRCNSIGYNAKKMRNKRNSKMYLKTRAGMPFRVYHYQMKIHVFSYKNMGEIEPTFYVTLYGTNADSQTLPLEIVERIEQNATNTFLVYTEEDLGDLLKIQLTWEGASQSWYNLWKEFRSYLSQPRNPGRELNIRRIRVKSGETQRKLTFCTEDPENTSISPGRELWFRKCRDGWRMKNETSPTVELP
Briefly: Endothelial Lipase Assay, cell surface lipase activity (human). The test is classed as cell-based. The following applies: cells expressing human EL, PLA1 substrate 10 μM, fluorescence reaction rate; several values in a cell are repeat determinations. As to the method: as §1, §2

One may read the IC50 as the point on the concentration scale where inhibition reaches its midpoint. A low value points to higher potency.

For `O=C(CCCCCCc1ccccc1)C(=O)NCc1nnc(-c2ccc(OCc3cc(F)cc(F)c3)cc2)s1` [Compound 146], the concentration for half-maximal inhibition (IC50) against Mouse EL amounted to 0.224 µM; in test [1], 2.32 µM.

With `O=C(CCCCCCc1ccccc1)C(=O)NCc1nnc(-c2ccc(F)c(F)c2)o1` [Compound 20], the half-inhibitory concentration (IC50) on Mouse EL was found to be 0.552 µM; in test [1] it was 0.49 µM.

Consider `O=C(CCCCCCc1ccccc1)C(=O)NCc1nnc(-c2ccc(OCc3ccncc3)cc2)o1` [Compound 86], for which the 50% inhibitory concentration (IC50) against Mouse EL is 0.072 µM; in test [1] it was 0.156 µM.

In the case of `CN(C)C(=O)c1cccc(COc2ccc(-c3nnc(CNC(=O)C(=O)CCCCCCc4ccccc4)s3)cc2)c1` [Compound 150], the concentration for half-maximal inhibition (IC50) at Mouse EL came out at 0.048 µM; in test [1], 0.092 µM.

Regarding `O=C(CCCCCCc1ccccc1)C(=O)NCc1nnc(-c2cccc(Oc3ccccc3)c2)o1` [Compound 58], the IC50 at Mouse EL is 1.72 µM; in test [1], 4.89 µM.

Consider `O=C(CCCCCCc1ccc(F)nc1)C(=O)NCc1nnc(-c2ccc(OCc3ccccn3)cc2)s1` [Compound 167], for which the results for the 50% inhibitory concentration (IC50) (on Mouse EL; in test [1]) were 0.217 µM and 0.36 µM, respectively.

`O=C(CCCCCCc1ccccc1)C(=O)NCc1nnc(-c2ccc(OCc3cccc(Br)n3)cc2)s1` [Compound 162]: the 50% inhibitory concentration (IC50) at Mouse EL came out at 0.202 µM; in test [1] it was 1.34 µM.

`Cc1ccc(-c2nnc(CNC(=O)C(=O)CCCCCc3ccc(-c4ccccc4)cc3)o2)cc1` [Compound 37]: the concentration for half-maximal inhibition (IC50) against Mouse EL turned out to be 1.47 µM; in test [1], 2.53 µM.

For `O=C(CCCCCCc1ccccc1)C(=O)NCc1nnc(-c2ccc(Oc3cccc(Cl)c3)cc2)o1` [Compound 66], the IC50 against Mouse EL is 0.366 µM; in test [1] it was 0.255 µM.

Take `NC(=O)c1cncc(CCCCCCC(=O)C(=O)NCc2nnc(-c3ccc(Oc4ccccc4)cc3)o2)c1` [Compound 142]: the concentration for half-maximal inhibition (IC50) was 0.897 µM on Mouse EL and 1.58 µM in test [1].

`CN(C)c1ccc(-c2nnc(CNC(=O)C(=O)CCCCCCc3ccccc3)o2)cc1` [Compound 24]: the half-inhibitory concentration (IC50) was found to be 20.7 µM at Mouse EL and 16.6 µM in test [1].

As for `O=C(CCCCCCc1ccccc1)C(=O)NCc1nnc(-c2ccc(OCc3cccc(F)n3)cc2)o1` [Compound 121], the IC50 at Mouse EL amounted to 0.187 µM; in test [1] it was 0.471 µM.

For the compound `O=C(CCCCCCc1ccc(F)nc1)C(=O)NCc1nnc(-c2ccc(OCc3ccnc(Cl)c3)cc2)s1` [Compound 169], the IC50 came to 0.062 µM at Mouse EL and 0.085 µM in test [1].

On to `O=C(CCCCCCc1ccccc1F)C(=O)NCc1nnc(-c2ccccc2)o1` [Compound 51], for which the values for the IC50 (at Mouse EL; in test [1]) were 0.802 µM and 0.607 µM, respectively.

Consider `O=C(CCCCCCc1ccccc1)C(=O)NCc1nnc(-c2ccc(OCc3ccnc(F)c3)cc2)s1` [Compound 152], for which the half-inhibitory concentration (IC50) was 0.207 µM and 0.048 µM against Mouse EL; 0.115 µM and 0.042 µM in test [1].

In the case of `COc1cccc(CCCCCCC(=O)C(=O)NCc2nnc(-c3ccc(C)cc3)o2)c1` [Compound 32], the IC50 came out at 0.165 µM against Mouse EL and 0.213 µM in test [1].

With `O=C(CCCCCCc1ccccc1)C(=O)NCc1nnc(-c2ccc(Cl)cc2)o1` [Compound 2], the IC50 against Mouse EL stood at 0.616 µM; in test [1], 0.488 µM.

As to `CC(C)(C)OC(=O)N(Cc1cccnc1)c1ccc(-c2nnc(CNC(=O)C(=O)CCCCCCc3ccccc3)o2)cc1` [Compound 123], the concentration for half-maximal inhibition (IC50) at Mouse EL came out at 0.182 µM; in test [1], 0.288 µM.

In the case of `COC(=O)c1ccc(COc2ccc(-c3nnc(CNC(=O)C(=O)CCCCCCc4ccccc4)s3)cc2)o1` [Compound 141], the figures for the IC50 (at Mouse EL; in test [1]) were 0.045 µM and 0.101 µM, respectively.

`COC(=O)c1cccc(COc2ccc(-c3nnc(CNC(=O)C(=O)CCCCCCc4ccccc4)o3)cc2)c1` [Compound 83]: the 50% inhibitory concentration (IC50) was 0.064 µM at Mouse EL and 0.121 µM in test [1].

`O=C(CCCCCCc1ccccc1)C(=O)NCc1nnc(-c2ccc(OCc3cccc(C(=O)O)c3)cc2)o1` [Compound 126]: the IC50 on Mouse EL worked out at 0.242 µM; in test [1], 0.398 µM.

Consider `N#Cc1ccc(C#CCCCCC(=O)C(=O)NCc2nnc(-c3ccccc3)o2)cc1` [Compound 45], for which the IC50 on Mouse EL is 2.41 µM; in test [1], 3.47 µM.
